Activity calls are given as the source filed them.
Assays:
Mus musculus [1] = experiment: Anxiolytic activity in BALB/c mouse assessed as velocity at equimolar oral dose relative to 5 mg/kg fluoxetine after 90 mins by open-field test (RVb= 7.07+/-0.51 cm/s); assay type: functional
Mus musculus [2] = experiment: Anxiolytic activity in BALB/c mouse assessed as velocity at equimolar oral dose relative to 10 mg/kg fluoxetine after 90 mins by open-field test (RVb= 7.07+/-0.51 cm/s); assay type: functional
Mus musculus [3] = experiment: Anxiolytic activity in BALB/c mouse assessed as distance moved at equimolar oral dose relative to 20 mg/kg fluoxetine after 90 mins by open-field test (RVb= 8485+/-610 cm); assay type: functional
Mus musculus [4] = experiment: Antinociceptive activity in BALB/c mouse assessed as paw withdrawal latency at 0.4 mg/kg, po after 2 to 4 hrs by hot plate method; assay type: functional, organism-based; parameters: dose 0.4 mg/kg
Mus musculus [5] = experiment: Antinociceptive activity against formalin-induced neurogenic pain in BALB/c mouse assessed paw licking, biting or shaking at to 30 mg/kg, po equimolar dose of fluoxetine administered 2 hrs before formalin challenge measured relative to control; assay type: functional, organism-based; parameters: dose 30 mg/kg
Mus musculus [6] = experiment: Antinociceptive activity against formalin-induced neurogenic pain in BALB/c mouse assessed paw licking, biting or shaking at 30 mg/kg, po administered 2 hrs before formalin challenge measured relative to control; assay type: functional, organism-based; parameters: dose 30 mg/kg
Mus musculus [7] = experiment: Anxiolytic activity in BALB/c mouse assessed as velocity at equimolar oral dose relative to 20 mg/kg fluoxetine after 90 mins by open-field test (RVb= 7.07+/-0.51 cm/s); assay type: functional
Mus musculus [8] = experiment: Antinociceptive activity against formalin-induced neurogenic pain in BALB/c mouse assessed paw licking, biting or shaking during at 10 mg/kg, po equimolar oral dose fluoxetine administered 2 hrs before formalin challenge measured relative to control; assay type: functional, organism-based; parameters: dose 10 mg/kg
Mus musculus [9] = experiment: Antinociceptive activity against formalin-induced neurogenic pain in BALB/c mouse assessed paw licking, biting or shaking during at 10 mg/kg, po administered 2 hrs before formalin challenge measured relative to control; assay type: functional, organism-based; parameters: dose 10 mg/kg
Mus musculus [10] = experiment: Anxiolytic activity in BALB/c mouse assessed as immobility at equimolar oral dose relative to 10 mg/kg fluoxetine after 90 mins by open-field test (RVb= 458.4+/-41 s); assay type: functional
Mus musculus [11] = experiment: Anxiolytic activity in BALB/c mouse assessed as immobility at equimolar oral dose relative to 20 mg/kg fluoxetine after 90 mins by open-field test (RVb= 458.4+/-41 s); assay type: functional
Mus musculus [12] = experiment: Anxiolytic activity in BALB/c mouse assessed as distance moved at equimolar oral dose relative to 5 mg/kg fluoxetine after 90 mins by open-field test (RVb= 8485+/-610 cm); assay type: functional
Mus musculus [13] = experiment: Anxiolytic activity in BALB/c mouse assessed as distance moved at equimolar oral dose relative to 10 mg/kg fluoxetine after 90 mins by open-field test (RVb= 8485+/-610 cm); assay type: functional
Mus musculus [14] = experiment: Antinociceptive activity in BALB/c mouse assessed as increase in paw withdrawal latency time at 10 mg/kg, po daily measured after 3 to 5 hrs on day 1 on day 1 to 11; assay type: functional, organism-based; parameters: dose 10 mg/kg
Mus musculus [15] = experiment: Antinociceptive activity in BALB/c mouse assessed as increase in paw withdrawal latency time at 10 mg/kg, po equimolar dose of fluoxetine daily measured after 3 to 5 hrs on day 1 to 11; assay type: functional, organism-based; parameters: dose 10 mg/kg
Mus musculus [16] = experiment: Anxiolytic activity in BALB/c mouse assessed as immobility at equimolar oral dose relative to 5 mg/kg fluoxetine after 90 mins by open-field test (RVb= 458.4+/-41 s); assay type: functional
Mus musculus [17] = experiment: Antinociceptive activity in BALB/c mouse assessed as […] at 10 mg/kg, po equimolar dose of nortriptyline after 240 mins by hot plate method; assay type: functional, organism-based; parameters: dose 10 mg/kg
Mus musculus [18] = experiment: Antinociceptive activity in BALB/c mouse assessed as paw withdrawal latency at 0.4 mg/kg, po equimolar dose of nortriptyline after 2 to 4 hrs by hot plate method; assay type: functional, organism-based; parameters: dose 0.4 mg/kg
Mus musculus [19] = experiment: Antinociceptive activity in BALB/c mouse assessed as […] at 20 to 40 mg/kg, po equimolar dose of nortriptyline after 240 mins by hot plate method; assay type: functional, organism-based
Mus musculus [20] = experiment: Antiinflammatory activity against formalin-induced BALB/c mouse skin assessed as reduction in TNFalpha level at to 0.5 mg/kg, po; assay type: functional, organism-based; parameters: dose 0.5 mg/kg
Mus musculus [21] = experiment: Antinociceptive activity against formalin-induced pain in BALB/c mouse assessed paw licking, biting or shaking at 0.5 mg/kg, po equimolar dose of nortriptyline administered 2 hrs before formalin challenge measured after 25 to 35 mins relative to control; assay type: functional, organism-based; parameters: dose 0.5 mg/kg
Mus musculus [22] = experiment: Antinociceptive activity against formalin-induced pain in BALB/c mouse assessed paw licking, biting or shaking at 0.5 mg/kg, po administered 2 hrs before formalin challenge measured after 0 to 5 mins relative to control; assay type: functional, organism-based; parameters: dose 0.5 mg/kg
Rattus norvegicus = experiment: Antiinflammatory activity against gamma carrageenan-induced paw edema in Wistar rat assessed as paw volume at 5 mg/kg, po equimolar dose of nortriptyline administered 2 hrs before carrageenan challenge relative to control; assay type: functional, organism-based; parameters: dose 5 mg/kg
Mus musculus [23] = experiment: Antinociceptive activity against formalin-induced pain in BALB/c mouse assessed paw licking, biting or shaking at 5 mg/kg, po equimolar dose of nortriptyline administered 2 hrs before formalin challenge measured after 0 to 5 mins relative to control; assay type: functional, organism-based; parameters: dose 5 mg/kg
Mus musculus [24] = experiment: Antinociceptive activity in BALB/c mouse assessed as […] at 0.25 mg/kg, po equimolar dose of nortriptyline after 240 mins by hot plate method; assay type: functional, organism-based; parameters: dose 0.25 mg/kg
Mus musculus [25] = experiment: Antinociceptive activity in BALB/c mouse assessed as […] at 4.5 mg/kg, po after 240 mins by hot plate method; assay type: functional, organism-based; parameters: dose 4.5 mg/kg
Mus musculus [26] = experiment: Antinociceptive activity against formalin-induced pain in BALB/c mouse assessed paw licking, biting or shaking at 5 mg/kg, po administered 2 hrs before formalin challenge measured after 0 to 5 mins relative to control; assay type: functional, organism-based; parameters: dose 5 mg/kg
Mus musculus [27] = experiment: Antinociceptive activity against formalin-induced pain in BALB/c mouse assessed paw licking, biting or shaking at 5 mg/kg, po equimolar dose of nortriptyline administered 2 hrs before formalin challenge measured after 25 to 35 mins relative to control; assay type: functional, organism-based; parameters: dose 5 mg/kg
Mus musculus [28] = experiment: Antinociceptive activity in BALB/c mouse assessed as […] at 0.25 mg/kg, po after 240 mins by hot plate method; assay type: functional, organism-based; parameters: dose 0.25 mg/kg
Mus musculus [29] = experiment: Antinociceptive activity against formalin-induced pain in BALB/c mouse assessed paw licking, biting or shaking at 5 mg/kg, po administered 2 hrs before formalin challenge measured after 25 to 35 mins relative to control; assay type: functional, organism-based; parameters: dose 5 mg/kg
Mus musculus [30] = experiment: Antinociceptive activity against formalin-induced pain in BALB/c mouse assessed paw licking, biting or shaking at 0.5 mg/kg, po administered 2 hrs before formalin challenge measured after 25 to 35 mins relative to control; assay type: functional, organism-based; parameters: dose 0.5 mg/kg
Mus musculus [31] = experiment: Antinociceptive activity in BALB/c mouse assessed as […] at 0.5 mg/kg, po equimolar dose of nortriptyline after 240 mins by hot plate method; assay type: functional, organism-based; parameters: dose 0.5 mg/kg
Mus musculus [32] = experiment: Antinociceptive activity against formalin-induced pain in BALB/c mouse assessed paw licking, biting or shaking at 0.5 mg/kg, po equimolar dose of nortriptyline administered 2 hrs before formalin challenge measured after 0 to 5 mins relative to control; assay type: functional, organism-based; parameters: dose 0.5 mg/kg
Mus musculus [33] = experiment: Antinociceptive activity in BALB/c mouse assessed as […] at 4.5 mg/kg, po equimolar dose of nortriptyline after 240 mins by hot plate method; assay type: functional, organism-based; parameters: dose 4.5 mg/kg

Measured: Activity

CN(CCC(Oc1ccc(C(F)(F)F)cc1)c1ccccc1)C(=O)CCCN.Cl (centres undefined)
active: Mus musculus [4] | Mus musculus [5] | Mus musculus [6] | Mus musculus [8] | Mus musculus [9] | Mus musculus [14] | Mus musculus [15] | Mus musculus [17] | Mus musculus [18] | Mus musculus [19]
5.39 cm/s: Mus musculus [7]
8003 cm: Mus musculus [13]
639.9 s: Mus musculus [11]
6.67 cm/s: Mus musculus [2]
7767 cm: Mus musculus [12]
536.3 s: Mus musculus [10]
6462 cm: Mus musculus [3]
501.5 s: Mus musculus [16]
6.47 cm/s: Mus musculus [1]

CNCCC=C1c2ccccc2CCc2ccccc21
active: Mus musculus [20] | Mus musculus [21] | Mus musculus [22] | Rattus norvegicus | Mus musculus [23] | Mus musculus [24] | Mus musculus [25] | Mus musculus [26] | Mus musculus [27] | Mus musculus [28] | Mus musculus [29] | Mus musculus [30] | Mus musculus [31] | Mus musculus [32] | Mus musculus [33]

— ChEMBL document CHEMBL1138490, “Gamma-aminobutyric acid amides of nortriptyline and fluoxetine display improved pain suppressing activity” (2009)
